Test results published in ChEMBL document CHEMBL3351417, “Thiophene-3-carboxamide analogue of annonaceous acetogenins as antitumor drug lead” (Eur J Med Chem, 2014).

system: not listed separately; assay: Growth inhibition of human RXF631L cells after 48 hrs by sulforhodamine B colorimetric assay; format: functional; conditions: RXF 631, 48 h

| SMILES | GI50 [µM] |
| --- | --- |
| CCCCCCCCCCCC[C@@H](O)[C@H]1CC[C@H]([C@H](O)CCCCCCCCCCNC(=O)c2ccnn2C)O1 | > 100 |

system: not listed separately; assay: Growth inhibition of human SNB78 cells after 48 hrs by sulforhodamine B colorimetric assay; format: functional; conditions: SNB-78, 48 h

| SMILES | GI50 [µM] |
| --- | --- |
| CCCCCCCCCCCC[C@@H](O)[C@H]1CC[C@H]([C@H](O)CCCCCCCCCCNC(=O)c2ccnn2C)O1 | > 100 |

system: SNB-75; assay: Growth inhibition of human SNB75 cells after 48 hrs by sulforhodamine B colorimetric assay; format: functional; conditions: SNB-75, 48 h

| SMILES | GI50 [µM] |
| --- | --- |
| CCCCCCCCCCCC[C@@H](O)[C@H]1CC[C@H]([C@H](O)CCCCCCCCCCNC(=O)c2ccnn2C)O1 | 50.1 |

system: KM12; assay: Growth inhibition of human KM12 cells after 48 hrs by sulforhodamine B colorimetric assay; format: functional; conditions: KM12, 48 h

| SMILES | GI50 [µM] |
| --- | --- |
| CCCCCCCCCCCC[C@@H](O)[C@H]1CC[C@H]([C@H](O)CCCCCCCCCCNC(=O)c2ccnn2C)O1 | > 100 |

system: HT-29; assay: Growth inhibition of human HT-29 cells after 48 hrs by sulforhodamine B colorimetric assay; format: functional; conditions: HT-29, 48 h

| SMILES | GI50 [µM] |
| --- | --- |
| CCCCCCCCCCCC[C@@H](O)[C@H]1CC[C@H]([C@H](O)CCCCCCCCCCNC(=O)c2ccnn2C)O1 | > 100 |

system: not listed separately; assay: Growth inhibition of human HBC4 cells after 48 hrs by sulforhodamine B colorimetric assay; format: functional; conditions: HBC4, 48 h

| SMILES | GI50 [µM] |
| --- | --- |
| CCCCCCCCCCCC[C@@H](O)[C@H]1CC[C@H]([C@H](O)CCCCCCCCCCNC(=O)c2ccnn2C)O1 | > 100 |

system: not listed separately; assay: Growth inhibition of human HCC2998 cells after 48 hrs by sulforhodamine B colorimetric assay; format: functional; conditions: HCC 2998, 48 h

| SMILES | GI50 [µM] |
| --- | --- |
| CCCCCCCCCCCC[C@@H](O)[C@H]1CC[C@H]([C@H](O)CCCCCCCCCCNC(=O)c2ccnn2C)O1 | > 100 |

system: not listed separately; assay: Growth inhibition of human HCT15 cells after 48 hrs by sulforhodamine B colorimetric assay; format: functional; conditions: HCT-15, 48 h

| SMILES | GI50 [µM] |
| --- | --- |
| CCCCCCCCCCCC[C@@H](O)[C@H]1CC[C@H]([C@H](O)CCCCCCCCCCNC(=O)c2ccnn2C)O1 | > 100 |

system: SF-268; assay: Growth inhibition of human SF268 cells after 48 hrs by sulforhodamine B colorimetric assay; format: functional; conditions: SF-268, 48 h

| SMILES | GI50 [µM] |
| --- | --- |
| CCCCCCCCCCCC[C@@H](O)[C@H]1CC[C@H]([C@H](O)CCCCCCCCCCNC(=O)c2ccnn2C)O1 | > 100 |

system: DU-145; assay: Growth inhibition of human DU145 cells after 48 hrs by sulforhodamine B colorimetric assay; format: functional; conditions: DU-145, 48 h

| SMILES | GI50 [µM] |
| --- | --- |
| CCCCCCCCCCCC[C@@H](O)[C@H]1CC[C@H]([C@H](O)CCCCCCCCCCNC(=O)c2ccnn2C)O1 | > 100 |

system: not listed separately; assay: Growth inhibition of human SF295 cells after 48 hrs by sulforhodamine B colorimetric assay; format: functional; conditions: SF-295, 48 h

| SMILES | GI50 [µM] |
| --- | --- |
| CCCCCCCCCCCC[C@@H](O)[C@H]1CC[C@H]([C@H](O)CCCCCCCCCCNC(=O)c2ccnn2C)O1 | 10 |

system: SK-OV-3; assay: Growth inhibition of human SKOV3 cells after 48 hrs by sulforhodamine B colorimetric assay; format: functional; conditions: SK-OV-3, 48 h

| SMILES | GI50 [µM] |
| --- | --- |
| CCCCCCCCCCCC[C@@H](O)[C@H]1CC[C@H]([C@H](O)CCCCCCCCCCNC(=O)c2ccnn2C)O1 | > 100 |

system: not listed separately; assay: Growth inhibition of human OVCAR5 cells after 48 hrs by sulforhodamine B colorimetric assay; format: functional; conditions: OVCAR-5, 48 h

| SMILES | GI50 [µM] |
| --- | --- |
| CCCCCCCCCCCC[C@@H](O)[C@H]1CC[C@H]([C@H](O)CCCCCCCCCCNC(=O)c2ccnn2C)O1 | > 100 |

system: not listed separately; assay: Toxicity in human NCI-H23 cells xenografted in mouse ip dosed on day 0 and day; format: organism-based; conditions: in vivo

| SMILES | MTD [mg/kg] |
| --- | --- |
| CCCCCCCCCCCC[C@@H](O)[C@H]1CC[C@H]([C@H](O)CCCCCCCCCCNC(=O)c2ccnn2C)O1 | 5 |

system: U-251; assay: Growth inhibition of human U251 cells after 48 hrs by sulforhodamine B colorimetric assay; format: functional; conditions: U-251, 48 h

| SMILES | GI50 [µM] |
| --- | --- |
| CCCCCCCCCCCC[C@@H](O)[C@H]1CC[C@H]([C@H](O)CCCCCCCCCCNC(=O)c2ccnn2C)O1 | > 100 |
